These results are taken from patent US12263171B2, “7-, 8-, and 10-substituted amino triazolo quinazoline derivatives as adenosine receptor antagonists, pharmaceutical compositions and their use” (Merck Sharp & Dohme LLC, priority 2018, dated 2025).

For assay [1], the target named is human A2a adenosine receptor (Homo sapiens (Human), UniProt P29274). Put plainly: A2a receptor affinity radioligand binding assay ([3H] SCH58261, membranes from HEK293 or CHO cells). The settings on record: for IC50: unstarred values: radioligand binding. In outline:
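Displacement of tritiated SCH58261 (working dilution 4 nM) from recombinant human A2a receptor membranes (HEK293 or CHO), 60 min at room temperature in Tris pH 7.4/MgCl2 buffer after 15–30 min compound preincubation. Scintillation counting after filtration; normalized percent effect fitted 4-parameter logistic for IC50.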

The target of assay [2] is human A2b adenosine receptor (Homo sapiens (Human), UniProt P29275). The assay can be described thus: A2b radioligand filtration binding assay (tritiated proprietary A2b antagonist, HEK293 membranes). As to conditions: for IC50: unstarred values: radioligand binding; for A2B binding % inh. @ 10000 nM: unstarred. Summed up: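 Displacement of a tritiated proprietary A2b antagonist from membranes of HEK293 cells recombinantly expressing human A2b receptor, measured by filtration and scintillation counting. Percent effect was normalized to total and non-specific binding and fitted with a 4-parameter logistic to give IC50.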
human A2b adenosine receptor, sequence (P29275 whole entry): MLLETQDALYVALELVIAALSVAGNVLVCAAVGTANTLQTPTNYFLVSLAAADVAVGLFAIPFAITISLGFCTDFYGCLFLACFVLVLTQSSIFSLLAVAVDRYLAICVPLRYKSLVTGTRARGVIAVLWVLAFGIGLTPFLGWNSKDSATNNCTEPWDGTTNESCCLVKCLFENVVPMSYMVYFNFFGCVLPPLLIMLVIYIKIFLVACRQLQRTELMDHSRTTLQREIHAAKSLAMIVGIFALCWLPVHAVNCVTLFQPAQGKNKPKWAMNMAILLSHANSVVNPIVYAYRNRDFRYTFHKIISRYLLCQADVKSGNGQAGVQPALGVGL

human A2a adenosine receptor, sequence (P29274 whole entry): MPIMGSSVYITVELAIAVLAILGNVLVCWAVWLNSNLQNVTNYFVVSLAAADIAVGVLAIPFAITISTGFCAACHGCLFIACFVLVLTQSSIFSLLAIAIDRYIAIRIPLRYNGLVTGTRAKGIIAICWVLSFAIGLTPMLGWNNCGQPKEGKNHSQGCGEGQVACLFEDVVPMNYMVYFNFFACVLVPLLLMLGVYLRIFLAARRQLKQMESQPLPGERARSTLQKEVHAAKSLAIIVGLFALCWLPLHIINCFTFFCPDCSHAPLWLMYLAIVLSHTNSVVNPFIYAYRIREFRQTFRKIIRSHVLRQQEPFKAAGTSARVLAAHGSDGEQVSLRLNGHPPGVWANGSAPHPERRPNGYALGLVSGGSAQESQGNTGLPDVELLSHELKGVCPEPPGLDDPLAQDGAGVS

The IC50 is the concentration needed to halve the response being measured. Read a high IC50 as lower potency. Consider `C[C@H]1CC[C@@H](c2nc3c4ccc(C5CC5)cc4nc(N)n3n2)CN1c1cnn(CC(C)(C)O)c1` (single isomer, unassigned) [Example 205, 1-(4-((2S, 5R or 2R,5S)-5-(5-amino-8-cyclopropyl-[1,2,4]triazolo[1,5-c]quinazolin-2-yl)-2-methylpiperidin-1-yl)-1H-pyrazol-1-yl)-2-methylpropan-2-ol], for which the IC50 in assay [1] came out at 0.4 nM; in assay [2], 5.5 nM.

For the compound `COc1ccc2c(c1)nc(N)n1nc([C@@H]3CCCN(c4cnn(CC5(O)CCC5)c4)C3)nc21` [Example 176], the IC50 came to 0.7 nM in assay [1] and 189 nM in assay [2].

For the compound `COc1ccc2c(c1)nc(N)n1nc([C@@H]3CCCN(c4cnn(CC(C)(C)O)c4)C3)nc21` [Example 179, (R)-1-(4-(3-(5-amino-8-methoxy-[1,2,4]triazolo[1,5-c]quinazolin-2-yl)piperidin-1-yl)-1H-pyrazol-1-yl)-2-methylpropan-2-ol], the IC50 in assay [1] amounted to 3.5 nM; in assay [2] it was 103 nM.

As to `COc1cccc2c1nc(N)n1nc([C@H]3CCC[C@@H](c4cnn(C)c4)C3)nc21` (single isomer, unassigned) [Example 136C], the results for the half-inhibitory concentration (IC50) in assay [1] and in assay [2] were 1.2 nM and 157 nM, respectively.

On to `COc1ccc2c(c1)nc(N)n1nc([C@@H]3CCCN(c4ncn(CC(C)(C)O)n4)C3)nc21` [Example 194, (R)-1-(3-(3-(5-amino-8-methoxy-[1,2,4]triazolo[1,5-c]quinazolin-2-yl)piperidin-1-yl)-1H-1,2,4-triazol-1-yl)-2-methylpropan-2-ol], for which the figures for the IC50 in assay [1] and in assay [2] were 6.7 nM and 528 nM, respectively.

As for `COc1cccc2c1nc(N)n1nc([C@@H]3CCCN(c4cnn(C(C)C(C)(C)O)c4)C3)nc21` (single isomer, unassigned) [Example 61A], the IC50 in assay [1] is 0.2 nM; in assay [2], 45.2 nM.

Turning to `COc1cccc2c1nc(N)n1nc([C@@H]3CCCN(c4cnn(C5CCS(=O)(=O)CC5)c4)C3)nc21` [Example 122, (R)-4-(4-(3-(5-amino-7-methoxy-[1,2,4]triazolo[1,5-c]quinazolin-2-yl)piperidin-1-yl)-1H-pyrazol-1-yl)tetrahydro-2H-thiopyran 1,1-dioxide], the IC50 amounted to 0.1 nM in assay [1] and 58.4 nM in assay [2].

For the compound `Cn1cc(N2CCCC(c3nc4c5cccc(O)c5nc(N)n4n3)C2)cn1` (single isomer, unassigned) [Example 165, (R or S)-5-amino-2-(1-(1-methyl-1H-pyrazol-4-yl)piperidin-3-yl)-[1,2,4]triazolo[1,5-c]quinazolin-7-ol], the “A2A binding % inh. @ 10000 nM” value in assay [1] (@ 10000 nM, unstarred) is 19% inh. @ 10000 nM. Further, in assay [2], the “A2B binding % inh. @ 10000 nM” value is on record as 10% inh. @ 10000 nM.

In the case of `COc1cccc2c1nc(N)n1nc([C@@H]3CCCN(c4ncccn4)C3)nc21` [Example 117, (R)-7-methoxy-2-(1-(pyrimidin-2-yl)piperidin-3-yl)-[1,2,4]triazolo[1,5-c]quinazolin-5-amine], the IC50 in assay [1] is 0.9 nM; in assay [2] it was 431 nM.

For `COc1cccc2c1nc(N)n1nc([C@@H]3CCCN(c4cnc(OC(F)F)c(C)c4)C3)nc21` [Example 100, (R)-2-(1-(6-(difluoromethoxy)-5-methylpyridin-3-yl)piperidin-3-yl)-7-methoxy-[1,2,4]-triazolo[1,5-c]quinazolin-5-amine], the IC50 in assay [1] was 0.7 nM; in assay [2], 56.8 nM.

Turning to `COc1cccc2c1nc(N)n1nc([C@@H]3CCCN(c4cc(C(F)(F)F)c(=O)n(C)c4)C3)nc21` [Example 99, (R)-5-(3-(5-amino-7-methoxy-[1,2,4]triazolo[1,5-c]quinazolin-2-yl)piperidin-1-yl)-1-methyl-3-(trifluoromethyl)pyridin-2(1H)-one], the IC50 in assay [1] was 0.6 nM; in assay [2], 98.4 nM.

For the compound `Cc1ccc2c(nc(N)n3nc(C4CCCN(c5cnn(C)c5)C4)nc23)c1C` (single isomer, unassigned) [Example 167, (R or S)-7,8-dimethyl-2-(1-(1-methyl-1H-pyrazol-4-yl)piperidin-3-yl)-[1,2,4]triazolo[1,5-c]quinazolin-5-amine], the IC50 in assay [1] came to 14.1 nM; in assay [2] it was 117 nM.

Take `CNC(=O)C(C)(C)n1cc(N2CCC[C@@H](c3nc4c5cccc(OC)c5nc(N)n4n3)C2)cn1` [Example 26, (R)-2-(4-(3-(5-annino-7-methoxy-[1,2,4]triazolo[1,5-c]quinazolin-2-yl)piperidin-1-yl)-1H-pyrazol-1-yl)-N,2-dimethylpropanamide]: the IC50 is 3.5 nM in assay [1] and 2 nM in assay [2].

`COc1ccc2c(c1)nc(N)n1nc([C@@H]3CC[C@H](C)N(c4cnn(C5CCC[C@H]5O)c4)C3)nc21` (some centres unmarked) [Example 210A]: the results for the IC50 in assay [1] and in assay [2] were 0.2 nM and 4.8 nM, respectively.

Regarding `COc1ccc2c(c1)nc(N)n1nc([C@@H]3CCCN(c4cnc(OC(F)F)c(C)c4)C3)nc21` [Example 190, (R)-2-(1-(6-(difluoromethoxy)-5-methylpyridin-3-yl)piperidin-3-yl)-8-methoxy-[1,2,4]triazolo[1,5-c]quinazolin-5-amine], the IC50 in assay [1] amounted to 10.1 nM; in assay [2], 480 nM.

On to `COc1cccc2c1nc(N)n1nc([C@@H]3CCCN(c4ccc(=O)n(C(F)F)c4)C3)nc21` [Example 92, (R)-5-(3-(5-amino-7-methoxy-[1,2,4]triazolo[1,5-c]quinazolin-2-yl)piperidin-1-yl)-1-(difluoromethyl)pyridin-2(1H)-one], for which the IC50 in assay [1] was 0.7 nM; in assay [2] it was 196 nM.

As to `CCn1cc(N2C[C@@H](c3nc4c5cccc(OC)c5nc(N)n4n3)CC[C@H]2C)cn1` (single isomer, unassigned) [Example 140A], the IC50 in assay [1] came out at 66.8 nM; in assay [2], 5510 nM.

Regarding `COc1ccc2c(c1)nc(N)n1nc([C@H]3C[C@@H](F)CN(c4cnn(CC(C)(C)O)c4)C3)nc21` [Example 196A], the figures for the IC50 in assay [1] and in assay [2] were 2.9 nM and 802 nM, respectively.

As for `COc1ccc2c(c1)nc(N)n1nc([C@@H]3CCCN(c4cnn([C@@H](C)C(C)(C)O)c4C)C3)nc21` [Example 189B, (S)-3-(4-((R)-3-(5-amino-8-methoxy-[1,2,4]triazolo[1,5-c]quinazolin-2-yl)piperidin-1-yl)-5-methyl-1H-pyrazol-1-yl)-2-methylbutan-2-ol], the half-inhibitory concentration (IC50) worked out at 0.7 nM in assay [1] and 291 nM in assay [2].

For the compound `COc1cccc2c1nc(N)n1nc([C@@H]3CCCN(c4cnn(CC5(O)CCC5)c4)C3)nc21` [Example 23, (R)-1-((4-(3-(5-amino-7-methoxy-[1,2,4]-triazolo[1,5-c]quinazolin-2-yl)piperidin-1-yl)-1H-pyrazol-1-yl)methyl)cyclobutan-1-ol], the IC50 was found to be 1 nM in assay [1] and 64.2 nM in assay [2].

`COc1cccc2c1nc(N)n1nc(C3CC(F)CN(c4cn(CC(C)(C)O)nc4C)C3)nc21` (centres unmarked) [Example 151, 1-(4-(3-(5-amino-7-methoxy-[1,2,4]triazolo[1,5-c]quinazolin-2-yl)-5-fluoropiperidin-1-yl)-3-methyl-1H-pyrazol-1-yl)-2-methylpropan-2-ol] yielded an IC50 in assay [1] of 210 nM. In assay [2], the “A2B binding % inh. @ 10000 nM” value was 27% inh. @ 10000 nM.

Regarding `COc1cccc2c1nc(N)n1nc([C@@H]3CCC[C@](O)(c4cnn(CC(C)(C)O)c4)C3)nc21` (single isomer, unassigned) [Example 135, (1R, 3R or 1S,3S)-3-(5-amino-7-methoxy-[1,2,4]triazolo[1,5-c]quinazolin-2-yl)-1-(1-(2-hydroxy-2-methylpropyl)-1H-pyrazol-4-yl)cyclohexan-1-ol], the results for the IC50 in assay [1] and in assay [2] were 1.3 nM and 168 nM, respectively.

Take `Cn1cc(N2CCCC(c3nc4c5c(C(F)(F)F)cccc5nc(N)n4n3)C2)cn1` (single isomer, unassigned) [Example 170, (R or S)-2-(1-(1-methyl-1H-pyrazol-4-yl)piperidin-3-yl)-10-(trifluoromethyl)-[1,2,4]triazolo[1,5-c]quinazolin-5-amine]: the IC50 in assay [1] turned out to be 204 nM. In addition, in assay [2], the “A2B binding % inh. @ 10000 nM” value is given as 28% inh. @ 10000 nM.

As to `COc1cccc2c1nc(N)n1nc([C@@H]3CCCN(c4cnn([C@H]5C[C@@](C)(O)C5)c4)C3)nc21` [Example 35, (R)-3-(4-(3-(5-amino-7-methoxy-[1,2,4]triazolo[1,5-c]quinazolin-2-yl)piperidin-1-yl)-1H-pyrazol-1-yl)-1-methylcyclobutan-1-ol], the IC50 in assay [1] worked out at 0.7 nM; in assay [2] it was 41.9 nM.

`C[C@H]1CC[C@@H](c2nc3c4ccc(C(F)F)cc4nc(N)n3n2)CN1c1cnn(CC(C)(C)O)c1` [Example 201, 1-(4-((2S,5R)-5-(5-amino-8-(difluoromethyl)-[1,2,4]triazolo[1,5-c]quinazolin-2-yl)-2-methylpiperidin-1-yl)-1H-pyrazol-1-yl)-2-methylpropan-2-ol]: the IC50 in assay [1] came to 2.8 nM; in assay [2], 10.6 nM.

As to `COc1cccc2c1nc(N)n1nc(C3CC(F)CN(c4cnn(CC(C)(C)O)c4)C3)nc21` (centres unmarked) [Example 149], in assay [1], the IC50 was determined as 200 nM. In addition, the “A2B binding % inh. @ 10000 nM” value in assay [2] was found to be 32% inh. @ 10000 nM.

As for `COc1cccc2c1nc(N)n1nc([C@@H]3CCO[C@H](c4cnn(C)c4)C3)nc21` [Example 139D], the figures for the 50% inhibitory concentration (IC50) in assay [1] and in assay [2] were 58.3 nM and 5290 nM, respectively.

Take `COc1cccc2c1nc(N)n1nc([C@@H]3CCCN(c4ccc(C(C)C)nn4)C3)nc21` [Example 107, (R)-2-(1-(6-isopropylpyridazin-3-yl)piperidin-3-yl)-7-methoxy-[1,2,4]triazolo[1,5-c]quinazolin-5-amine]: the half-maximal inhibitory concentration (IC50) in assay [1] was 2.1 nM; in assay [2], 275 nM.
